Results reported in patent publication US11345711B2, “8,9-dihydroimidazo[1,2-a]pyrimido[5,4-e]pyrimidin-5(6H)-ones” (IMPACT THERAPEUTICS (SHANGHAI), INC, priority 2016, dated 2022).
Read-outs that look alike come from different tables or passages of the source.

Assays:
LoVo cells = assay: MTT based cell viability assay on LoVo cells; details: Homo sapiens, LoVo, 72 h, 3 d, read-out: IC50, growth inhibition of LoVo cells
Procedure, shortened: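 Inhibition of LoVo proliferation was derived as IC50 from a sigmoidal dose-response fit of cell survival. Readout was MTT (0.5 mg/mL, 4 h) with absorbance at 552/630/690 nm, after 3-day treatment at 37 °C. Eight-point series from 10 μM to 0.01 μM, DMSO control, 1% DMSO final.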

Wee1 (h) = Wee1 (h) (Homo sapiens, UniProt P30291); assay: Wee1 kinase (h) detection method, [γ-33P]-ATP filter assay; format: biochemical
Wee1 (h), sequence (P30291 whole entry): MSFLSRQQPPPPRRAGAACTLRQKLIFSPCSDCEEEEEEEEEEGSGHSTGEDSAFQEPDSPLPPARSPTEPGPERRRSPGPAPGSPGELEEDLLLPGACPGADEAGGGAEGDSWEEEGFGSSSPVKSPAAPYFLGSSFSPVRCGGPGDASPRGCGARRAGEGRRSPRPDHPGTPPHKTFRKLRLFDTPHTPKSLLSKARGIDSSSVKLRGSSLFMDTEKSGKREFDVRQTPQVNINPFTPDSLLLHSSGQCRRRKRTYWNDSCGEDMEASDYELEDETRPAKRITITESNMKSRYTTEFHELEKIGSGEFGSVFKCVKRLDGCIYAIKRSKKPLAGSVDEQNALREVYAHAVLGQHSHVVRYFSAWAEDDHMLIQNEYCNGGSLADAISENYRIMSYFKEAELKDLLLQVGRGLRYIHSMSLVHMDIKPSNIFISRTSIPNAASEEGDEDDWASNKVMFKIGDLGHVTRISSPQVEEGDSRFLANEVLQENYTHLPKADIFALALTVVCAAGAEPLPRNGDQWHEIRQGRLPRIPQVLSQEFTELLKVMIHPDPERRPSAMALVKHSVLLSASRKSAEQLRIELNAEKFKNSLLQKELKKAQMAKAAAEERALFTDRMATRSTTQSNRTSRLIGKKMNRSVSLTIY

NCI-H1299 cells = assay: MTT based cell viability assay on NCI-H1299 cells; details: Homo sapiens, read-out: IC50, growth inhibition of NCI-H1299 cells
Procedure, shortened: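 Viability read-out was MTT reduction (0.5 mg/mL, 4 h, absorbance 552/630/690 nm) after 3-day compound exposure at 37 °C of NCI-H1299 cells seeded at 1000 per well. Dilutions spanned 10 μM–0.01 μM in DMSO, final DMSO 1‰. Survival-versus-concentration curves were fitted sigmoidally to give IC50.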

IC50 (LoVo cells)	Inh. (%) of Wee1 kinase enzyme activity (Wee1 (h); C 1 μm compound)	IC50 (NCI-H1299 cells; NCI-H1299, NCI-H1299 cells)	Inh. (%) of Wee1 kinase enzyme activity (Wee1 (h); C 0.01 μm compound)	Inh. (%) of Wee1 kinase enzyme activity (Wee1 (h); C 0.1 μm compound)	IC50 (NCI-H1299 cells; NCI-H1299 cells)	SMILES
165 nM	95%	46 nM				Cc1cc(Nc2ncc3c(n2)N2CCN=C2N(c2c(Cl)cccc2Cl)C3=O)cc2c1C(C)(C)CN(C)C2 [Example 133, 6-(2,6-Dichlorophenyl)-2-((2,4,4,5-tetramethyl-1,2,3,4-tetrahydroisoquinolin-7-yl)amino)-8,9-dihydroimidazo[1,2-a]pyrimido[5,4-e]pyrimidin-5(6H)-one]
214 nM	94%	310 nM	36%	75%		C[C@@H]1CN(c2c(Cl)cc(Nc3ncc4c(n3)N3CCN=C3N(c3c(Cl)cccc3Cl)C4=O)cc2Cl)C[C@H](C)N1C [Example 136, 6-(2,6-Dichlorophenyl)-2-((3,5-dichloro-4-((3S,5R)-3,4,5-trimethylpiperazin-1-yl)phenyl)amino)-8,9-dihydroimidazo[1,2-a]pyrimido[5,4-e]pyrimidin-5(6H)-one]
114 nM	96%	122 nM	20%	78%		Cc1cc(Nc2ncc3c(n2)N2CCN=C2N(c2c(Cl)cccc2Cl)C3=O)cc(Cl)c1N1C[C@@H](C)N(C)[C@@H](C)C1 [Example 137, 6-(2,6-Dichlorophenyl)-2-((3-chloro-5-methyl-4-((3S,5R)-3,4,5-trimethylpiperazin-1-yl)phenyl)amino)-8,9-dihydroimidazo[1,2-a]pyrimido[5,4-e]pyrimidin-5(6H)-one]
199 nM	96%	170 nM	22%	77%		CN(C)C1CCN(c2ccc(Nc3ncc4c(n3)N3CCN=C3N(c3c(Cl)cccc3Cl)C4=O)cc2)CC1 [Example 138, 6-(2,6-Dichlorophenyl)-2-((4-(4-(dimethylamino)piperidin-1-yl)phenyl)amino)-8,9-dihydroimidazo[1,2-a]pyrimido[5,4-e]pyrimidin-5(6H)-one]
45.6 nM	95%	85.9 nM	31%	81%		CN(C)C1CCN(c2ccc(Nc3ncc4c(n3)N3CCN=C3N(c3c(Cl)cccc3Cl)C4=O)cc2Cl)CC1 [Example 139, 6-(2,6-Dichlorophenyl)-2-((3-chloro-4-(4-(dimethylamino)piperidin-1-yl)phenyl)amino)-8,9-dihydroimidazo[1,2-a]pyrimido[5,4-e]pyrimidin-5(6H)-one]
58.2 nM	98%	92.9 nM	32%	82%		CN(C)C1CCN(c2ccc(Nc3ncc4c(n3)N3CCN=C3N(c3c(Cl)cccc3Cl)C4=O)cc2Br)CC1 [Example 140, 6-(2,6-Dichlorophenyl)-2-((3-bromo-4-(4-(dimethylamino)piperidin-1-yl)phenyl)amino)-8,9-dihydroimidazo[1,2-a]pyrimido[5,4-e]pyrimidin-5(6H)-one]
51.4 nM	95%	109 nM	22%	75%		CN(C)C1CCN(c2c(Cl)cc(Nc3ncc4c(n3)N3CCN=C3N(c3c(Cl)cccc3Cl)C4=O)cc2Cl)CC1 [Example 142, 6-(2,6-Dichlorophenyl)-2-((3,5-dichloro-4-(4-(dimethylamino)piperidin-1-yl)phenyl)amino)-8,9-dihydroimidazo[1,2-a]pyrimido[5,4-e]pyrimidin-5(6H)-one]
61.5 nM	97%	140 nM	19%	76%		COc1cc(Nc2ncc3c(n2)N2CCN=C2N(c2c(Cl)cccc2Cl)C3=O)cc(Cl)c1N1CCC(N(C)C)CC1 [Example 144, 6-(2,6-Dichlorophenyl)-2-((3-chloro-4-(4-(dimethylamino)piperidin-1-yl)-5-methoxyphenyl)amino)-8,9-dihydroimidazo[1,2-a]pyrimido[5,4-e]pyrimidin-5(6H)-one]
84.9 nM	97%		21%	72%	219 nM	CN1CCN(c2ccc(Nc3ncc4c(n3)N3CCN=C3N(c3c(Cl)cccc3Cl)C4=O)cc2Br)CC1 [Example 145, 6-(2,6-Dichlorophenyl)-2-((3-bromo-4-(4-methylpiperazin-1-yl)phenyl)amino)-8,9-dihydroimidazo[1,2-a]pyrimido[5,4-e]pyrimidin-5(6H)-one]
83.3 nM	95%		9%	85%	250 nM	COc1cc(Nc2ncc3c(n2)N2CCN=C2N(c2c(Cl)cccc2Cl)C3=O)ccc1N1CCN(C)CC1 [Example 146, 6-(2,6-Dichlorophenyl)-2-((3-methoxy-4-(4-methylpiperazin-1-yl)phenyl)amino)-8,9-dihydroimidazo[1,2-a]pyrimido[5,4-e]pyrimidin-5(6H)-one]
91.1 nM	96%	209 nM	42%	86%		CN1CCN(c2c(F)cc(Nc3ncc4c(n3)N3CCN=C3N(c3c(Cl)cccc3Cl)C4=O)cc2Cl)CC1 [Example 147, 6-(2,6-Dichlorophenyl)-2-((3-chloro-5-fluoro-4-(4-methylpiperazin-1-yl)phenyl)amino)-8,9-dihydroimidazo[1,2-a]pyrimido[5,4-e]pyrimidin-5(6H)-one]
39.8 nM	94%	123 nM	40%	90%		Cc1cc(Nc2ncc3c(n2)N2CCN=C2N(c2c(Cl)cccc2Cl)C3=O)cc(F)c1N1CCN(C)CC1 [Example 148, 6-(2,6-Dichlorophenyl)-2-((3-fluoro-5-methyl-4-(4-methylpiperazin-1-yl)phenyl)amino)-8,9-dihydroimidazo[1,2-a]pyrimido[5,4-e]pyrimidin-5(6H)-one]
59.4 nM	94%	113 nM	22%	72%		COc1cc(Nc2ncc3c(n2)N2CCN=C2N(c2c(Cl)cccc2Cl)C3=O)cc(F)c1N1CCN(C)CC1 [Example 149, 6-(2,6-Dichlorophenyl)-2-((3-fluoro-5-methoxy-4-(4-methylpiperazin-1-yl)phenyl)amino)-8,9-dihydroimidazo[1,2-a]pyrimido[5,4-e]pyrimidin-5(6H)-one]
116 nM	93%	347 nM	20%	81%		CN1CCN(c2c(Cl)cc(Nc3ncc4c(n3)N3CCN=C3N(c3c(Cl)cccc3Cl)C4=O)cc2Cl)CC1 [Example 150, 6-(2,6-Dichlorophenyl)-2-((3,5-dichloro-4-(4-methylpiperazin-1-yl)phenyl)amino)-8,9-dihydroimidazo[1,2-a]pyrimido[5,4-e]pyrimidin-5(6H)-one]
